Measured values from ChEMBL document CHEMBL3596195, “Novel cajaninstilbene acid derivatives as antibacterial agents” (Eur J Med Chem, 2015).
In brackets after ≈: the same amount, converted by molar mass.

Legend:
Assay type in all cases: functional
Staphylococcus aureus [1] = experiment: Antibacterial activity against methicillin-resistant Staphylococcus aureus ATCC515992 assessed as bacterial growth inhibition after 24 hrs by broth dilution method; settings: ATCC515992, 24 h
Staphylococcus aureus [2] = experiment: Antibacterial activity against methicillin-resistant Staphylococcus aureus ATCC513045 assessed as bacterial growth inhibition after 24 hrs by broth dilution method; settings: ATCC513045, 24 h
Bacillus subtilis = experiment: Antibacterial activity against Bacillus subtilis ATCC6633 assessed as bacterial growth inhibition after 24 hrs by broth dilution method; settings: ATCC6633, 24 h
Staphylococcus aureus [3] = experiment: Antibacterial activity against methicillin-resistant Staphylococcus aureus ATCC425055 assessed as bacterial growth inhibition after 24 hrs by broth dilution method; settings: ATCC425055, 24 h
Staphylococcus aureus [4] = experiment: Antibacterial activity against methicillin-resistant Staphylococcus aureus ATCC510019 assessed as bacterial growth inhibition after 24 hrs by broth dilution method; settings: ATCC510019, 24 h
Staphylococcus aureus [5] = experiment: Antibacterial activity against Staphylococcus aureus ATCC25923 assessed as bacterial growth inhibition after 24 hrs by broth dilution method; settings: ATCC25923, 24 h
Staphylococcus aureus [6] = experiment: Antibacterial activity against methicillin-resistant Staphylococcus aureus ATCC523512 assessed as bacterial growth inhibition after 24 hrs by broth dilution method; settings: ATCC523512, 24 h
Staphylococcus aureus [7] = experiment: Antibacterial activity against methicillin-resistant Staphylococcus aureus ATCC43300 assessed as bacterial growth inhibition after 24 hrs by broth dilution method; settings: ATCC43300, 24 h
Staphylococcus aureus [8] = experiment: Antibacterial activity against methicillin-resistant Staphylococcus aureus ATCC52056 assessed as bacterial growth inhibition after 24 hrs by broth dilution method; settings: ATCC52056, 24 h
Proteus vulgaris = experiment: Antibacterial activity against Proteus vulgaris ATCC49101 assessed as bacterial growth inhibition after 24 hrs by broth dilution method; settings: ATCC49101, 24 h
Escherichia coli = experiment: Antibacterial activity against Escherichia coli ATCC25922 assessed as bacterial growth inhibition after 24 hrs by broth dilution method; settings: ATCC25922, 24 h
Staphylococcus aureus [9] = experiment: Antibacterial activity against methicillin-resistant Staphylococcus aureus ATCC62202 assessed as bacterial growth inhibition after 24 hrs by broth dilution method; settings: ATCC62202, 24 h
[10] = test system: Staphylococcus epidermidis; experiment: Antibacterial activity against Staphylococcus epidermidis ATCC12228 assessed as bacterial growth inhibition after 24 hrs by broth dilution method; settings: ATCC12228, 24 h
Staphylococcus aureus [11] = experiment: Antibacterial activity against methicillin-resistant Staphylococcus aureus ATCC51033 assessed as bacterial growth inhibition after 24 hrs by broth dilution method; settings: ATCC51033, 24 h
Pseudomonas aeruginosa = experiment: Antibacterial activity against Pseudomonas aeruginosa ATCC2785 assessed as bacterial growth inhibition after 24 hrs by broth dilution method; settings: ATCC2785, 24 h

Row | Structure (SMILES) | MIC (Staphylococcus aureus [1]) | MIC (Staphylococcus aureus [2]) | MIC (Bacillus subtilis) | MIC (Staphylococcus aureus [3]) | MIC (Staphylococcus aureus [4]) | MIC (Staphylococcus aureus [5]) | MIC (Staphylococcus aureus [6]) | MIC (Staphylococcus aureus [7]) | MIC (Staphylococcus aureus [8]) | MIC (Proteus vulgaris) | MIC (Escherichia coli) | MIC (Staphylococcus aureus [9]) | MIC [10] | MIC (Staphylococcus aureus [11]) | MIC (Pseudomonas aeruginosa)
1 | COC(=O)c1c(/C=C/c2ccc(C(F)(F)F)cc2)cc(OC)c(CC=C(C)C)c1O | > 128 µg/mL | 128 µg/mL (≈ 304 µM) | 128 µg/mL (≈ 304 µM) | 64 µg/mL (≈ 152 µM) | > 128 µg/mL | 64 µg/mL (≈ 152 µM) | 64 µg/mL (≈ 152 µM) | > 128 µg/mL | 128 µg/mL (≈ 304 µM) | > 128 µg/mL | > 128 µg/mL | 128 µg/mL (≈ 304 µM) | 64 µg/mL (≈ 152 µM) | > 128 µg/mL | > 128 µg/mL
2 | CCn1cc(C(=O)O)c(=O)c2cc(F)c(N3CCNCC3)cc21 [NORFLOXACIN] | 16 µg/mL (≈ 50.1 µM) | 4 µg/mL (≈ 12.5 µM) | 2 µg/mL (≈ 6.26 µM) | 4 µg/mL (≈ 12.5 µM) | 8 µg/mL (≈ 25.1 µM) | 2 µg/mL (≈ 6.26 µM) | 8 µg/mL (≈ 25.1 µM) | 4 µg/mL (≈ 12.5 µM) | 8 µg/mL (≈ 25.1 µM) | 16 µg/mL (≈ 50.1 µM) | 32 µg/mL (≈ 100 µM) | 8 µg/mL (≈ 25.1 µM) | 2 µg/mL (≈ 6.26 µM) | 4 µg/mL (≈ 12.5 µM) | 16 µg/mL (≈ 50.1 µM)
3 | COC(=O)c1c(O)cc(OC)cc1/C=C/c1ccc(Cl)cc1 | > 128 µg/mL | > 128 µg/mL | 128 µg/mL (≈ 402 µM) | > 128 µg/mL | > 128 µg/mL | > 128 µg/mL | > 128 µg/mL | > 128 µg/mL | > 128 µg/mL | > 128 µg/mL | > 128 µg/mL | 128 µg/mL (≈ 402 µM) | > 128 µg/mL | > 128 µg/mL | > 128 µg/mL
4 | COc1cc(O)c(C(=O)O)c(/C=C/c2ccccc2)c1 | > 128 µg/mL | > 128 µg/mL | 64 µg/mL (≈ 237 µM) | > 128 µg/mL | > 128 µg/mL | > 128 µg/mL | > 128 µg/mL | > 128 µg/mL | 128 µg/mL (≈ 474 µM) | > 128 µg/mL | > 128 µg/mL | 128 µg/mL (≈ 474 µM) | > 128 µg/mL | > 128 µg/mL | > 128 µg/mL
5 | COc1cc(/C=C/c2ccccc2)c(C(=O)O)c(O)c1CC=C(C)C | 32 µg/mL (≈ 94.6 µM) | 16 µg/mL (≈ 47.3 µM) | 32 µg/mL (≈ 94.6 µM) | 16 µg/mL (≈ 47.3 µM) | 32 µg/mL (≈ 94.6 µM) | 16 µg/mL (≈ 47.3 µM) | 32 µg/mL (≈ 94.6 µM) | 16 µg/mL (≈ 47.3 µM) | 16 µg/mL (≈ 47.3 µM) | > 64 µg/mL | > 128 µg/mL | 8 µg/mL (≈ 23.6 µM) | 16 µg/mL (≈ 47.3 µM) | 16 µg/mL (≈ 47.3 µM) | > 64 µg/mL
6 | COC(=O)c1c(/C=C/c2ccc(F)cc2F)cc(OC)c(CC=C(C)C)c1O | > 128 µg/mL | > 128 µg/mL | 128 µg/mL (≈ 330 µM) | 128 µg/mL (≈ 330 µM) | > 128 µg/mL | > 128 µg/mL | 64 µg/mL (≈ 165 µM) | > 128 µg/mL | 128 µg/mL (≈ 330 µM) | > 128 µg/mL | > 128 µg/mL | 64 µg/mL (≈ 165 µM) | 64 µg/mL (≈ 165 µM) | 128 µg/mL (≈ 330 µM) | > 128 µg/mL
7 | CC1(C)S[C@@H]2[C@H](NC(=O)Cc3ccccc3)C(=O)N2[C@H]1C(=O)O [PENICILLIN G] | 32 µg/mL (≈ 95.7 µM) | 32 µg/mL (≈ 95.7 µM) | 2 µg/mL (≈ 5.98 µM) | 32 µg/mL (≈ 95.7 µM) | 32 µg/mL (≈ 95.7 µM) | 2 µg/mL (≈ 5.98 µM) | 32 µg/mL (≈ 95.7 µM) | 32 µg/mL (≈ 95.7 µM) | 64 µg/mL (≈ 191 µM) | > 16 µg/mL | 64 µg/mL (≈ 191 µM) | 32 µg/mL (≈ 95.7 µM) | 2 µg/mL (≈ 5.98 µM) | 32 µg/mL (≈ 95.7 µM) | 16 µg/mL (≈ 47.8 µM)
8 | COC(=O)c1c(O)cc(OC)cc1/C=C/c1ccc(OC)cc1 | > 128 µg/mL | > 128 µg/mL | > 128 µg/mL | > 128 µg/mL | 128 µg/mL (≈ 407 µM) | > 128 µg/mL | > 128 µg/mL | > 128 µg/mL | > 128 µg/mL | > 128 µg/mL | > 128 µg/mL | > 128 µg/mL | > 128 µg/mL | > 128 µg/mL | 128 µg/mL (≈ 407 µM)
9 | COc1cc(/C=C/c2ccc(F)cc2)c(C(=O)O)c(O)c1CC=C(C)C | 8 µg/mL (≈ 22.4 µM) | 8 µg/mL (≈ 22.4 µM) | 1 µg/mL (≈ 2.81 µM) | 2 µg/mL (≈ 5.61 µM) | 1 µg/mL (≈ 2.81 µM) | 8 µg/mL (≈ 22.4 µM) | 4 µg/mL (≈ 11.2 µM) | 4 µg/mL (≈ 11.2 µM) | 1 µg/mL (≈ 2.81 µM) | > 64 µg/mL | > 128 µg/mL | 1 µg/mL (≈ 2.81 µM) | 4 µg/mL (≈ 11.2 µM) | 1 µg/mL (≈ 2.81 µM) | > 64 µg/mL
